Measured values: ChEMBL document CHEMBL1138934, “Indenone derivatives: a novel template for peroxisome proliferator-activated receptor gamma (PPARgamma) agonists” (J Med Chem, 2006)

Target: T1, Peroxisome proliferator-activated receptor gamma (Homo sapiens, UniProt P37231)
T1 sequence (P37231 whole entry): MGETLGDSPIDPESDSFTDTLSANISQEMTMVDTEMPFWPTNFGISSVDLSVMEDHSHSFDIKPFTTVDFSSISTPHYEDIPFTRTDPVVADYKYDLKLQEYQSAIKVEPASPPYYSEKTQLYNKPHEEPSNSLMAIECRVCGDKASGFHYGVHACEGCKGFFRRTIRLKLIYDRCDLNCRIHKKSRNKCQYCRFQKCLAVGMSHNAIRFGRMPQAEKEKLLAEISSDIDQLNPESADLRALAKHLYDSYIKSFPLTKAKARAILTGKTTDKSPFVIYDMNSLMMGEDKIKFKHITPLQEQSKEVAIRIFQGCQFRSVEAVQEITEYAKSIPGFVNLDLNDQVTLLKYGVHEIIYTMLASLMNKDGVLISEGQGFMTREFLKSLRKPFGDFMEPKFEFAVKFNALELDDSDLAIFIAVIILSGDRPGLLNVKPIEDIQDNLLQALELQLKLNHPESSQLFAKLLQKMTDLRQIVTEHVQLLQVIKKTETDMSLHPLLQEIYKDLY
Description: Activity at human PPAR gamma transfected in NIH3T3 cells by luciferase activity assay

Compound	EC50 [µM]
CCOC(=O)C1=C(c2ccccc2)c2ccc(OCCCc3ccccc3)cc2C1=O	0.05
CCOC(=O)CC1=C(c2ccccc2)c2ccc(OC)cc2C1=O	0.3
CCOC(=O)C1=C(c2ccccc2)c2ccc(OCCc3ccccc3)cc2C1=O	0.21
CCOC(=O)C1=C(c2ccccc2)c2ccc(OCc3ccccc3)cc2C1=O	0.22
CCOC(=O)C1=C(C23CC4CC(CC(C4)C2)C3)c2ccc(OC)cc2C1=O	2.5

Second part, the molecule after the results:

EC50 [µM]	Compound
> 10	CCOC(=O)C1=C(c2ccccc2)c2ccc(OC)cc2C1
0.3	CCOC(=O)C1=C(c2ccccc2)c2ccc(OC)cc2C1=O
> 10	CCOC(=O)C1=C(c2ccccc2)c2ccc(OC)cc2/C1=N/O
1	CCOC(=O)C1=C(c2ccoc2)c2ccc(OC)cc2C1=O

Target: T2, Peroxisome proliferator-activated receptor alpha (Homo sapiens, UniProt Q07869)
T2 sequence (Q07869 whole entry): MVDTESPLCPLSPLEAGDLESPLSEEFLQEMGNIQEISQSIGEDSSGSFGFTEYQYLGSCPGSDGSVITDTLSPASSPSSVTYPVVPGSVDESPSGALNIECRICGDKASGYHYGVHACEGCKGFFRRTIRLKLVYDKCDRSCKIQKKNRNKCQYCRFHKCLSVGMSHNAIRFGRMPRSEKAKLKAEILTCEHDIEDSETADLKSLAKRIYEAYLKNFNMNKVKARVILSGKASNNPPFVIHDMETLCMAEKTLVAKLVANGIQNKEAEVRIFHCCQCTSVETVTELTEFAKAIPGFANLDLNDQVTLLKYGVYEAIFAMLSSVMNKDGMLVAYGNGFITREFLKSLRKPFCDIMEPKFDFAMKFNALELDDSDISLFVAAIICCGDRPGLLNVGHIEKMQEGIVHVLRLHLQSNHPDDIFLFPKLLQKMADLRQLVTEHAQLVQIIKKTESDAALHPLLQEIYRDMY
Assay: Activity at human PPAR alpha

EC50 [µM]	Compound
> 100	CCOC(=O)C1=C(c2ccccc2)c2ccc(OC)cc2C1=O
